Measured values: ChEMBL document CHEMBL5154686, “Discovery of G2019S-Selective Leucine Rich Repeat Protein Kinase 2 inhibitors with in vivo efficacy” (Eur J Med Chem, 2022)

What was measured:
in vitro [1] = settings: human, Caco-2
in vitro [2] = settings: human, liver microsomes
in vitro [3] = settings: human, Caco-2; remark: listed apart in the source
in vitro [4] = settings: mouse, liver microsomes
[5] = Clearance in CD-1 mouse plasma at 0.4 mg/kg, iv by LC-MS/MS analysis; format: ADME, organism-based
[6] = Tmax in CD-1 mouse plasma at 2 mg/kg, po by LC-MS/MS analysis; format: ADME, organism-based
[7] = Oral bioavailability in CD-1 mouse plasma at 2 mg/kg by LC-MS/MS analysis; format: ADME, organism-based
[8] = Cmax in CD-1 mouse plasma at 2 mg/kg, po by LC-MS/MS analysis; format: ADME, organism-based; parameters: dose 2 mg/kg, route po
[9] = MRT in CD-1 mouse plasma at 2 mg/kg, po by LC-MS/MS analysis; format: ADME, organism-based
[10] = MRT in CD-1 mouse plasma at 0.4 mg/kg, iv by LC-MS/MS analysis; format: ADME, organism-based
[11] = Cmax in CD-1 mouse plasma at 0.4 mg/kg, iv by LC-MS/MS analysis; format: ADME, organism-based; parameters: dose 0.4 mg/kg, route iv
[12] = AUC infinity in CD-1 mouse plasma at 2 mg/kg, po by LC-MS/MS analysis; format: ADME, organism-based; parameters: time infinity, dose 2 mg/kg, route po
[13] = Half life in CD-1 mouse plasma at 2 mg/kg, po by LC-MS/MS analysis; format: ADME, organism-based
[14] = Ratio of drug level in brain to plasma in CD-1 mouse plasma at 2 mg/kg, po by LC-MS/MS analysis; format: ADME, organism-based; settings: brain and plasma, read-out: BPR
[15] = Ratio of drug level in brain to plasma in CD-1 mouse plasma at 0.4 mg/kg, iv by LC-MS/MS analysis; format: ADME, organism-based; settings: brain and plasma, read-out: BPR
[16] = Half life in CD-1 mouse plasma at 0.4 mg/kg, iv by LC-MS/MS analysis; format: ADME, organism-based
[17] = AUC infinity in CD-1 mouse plasma at 0.4 mg/kg, iv by LC-MS/MS analysis; format: ADME, organism-based; parameters: time infinity, dose 0.4 mg/kg, route iv

| Structure (SMILES) | Papp A→B (in vitro [1]) [×10⁻⁶ cm/s] | half-life (in vitro [2]) [min] | Papp B→A (in vitro [3]) [×10⁻⁶ cm/s] | half-life (in vitro [4]) [min] | clearance [5] [mL/min] | Tmax [6] [min] | bioavailability [7] [%] | Cmax [8] [nM] | MRT [9] [min] | MRT [10] [min] | Cmax [11] [nM] | AUC(0-inf) [12] [µM·h] | half-life [13] [min] | Kp [14] | Kp [15] | half-life [16] [min] | AUC(0-inf) [17] [µM·h] |
| --- | --- | --- | --- | --- | --- | --- | --- | --- | --- | --- | --- | --- | --- | --- | --- | --- | --- |
| Cc1cc(-c2n[nH]c3ccc(N[C@H]4CCCc5cc(C#N)ccc54)cc23)cc(C)n1 | 4.6 | 15 | 4 | 11.7 |  |  |  |  |  |  |  |  |  |  |  |  |  |
| Cc1cc(-c2n[nH]c3ccc(N[C@@H]4CCCc5cc(C#N)ccc54)cc23)ccn1 | 1.8 | 22 | 6.8 | 12.8 | 65.1 | 3000 | 77 | 390 | 162 | 30.6 | 310 | 1.06 | 107 | 0.1 | 0.5 | 24 | 0.16 |
| N#Cc1ccc2c(c1)OCC[C@H]2Nc1ccc2[nH]nc(-c3ccncc3)c2c1 | 19 | 38 | 25 | 10.3 | 94.9 | 30 | 147 | 460 | 145 | 24.6 | 280 | 1.29 | 88.2 | 0.5 | 1 | 18 | 0.14 |
| N#Cc1ccc2c(c1)CCC[C@@H]2Nc1ccc2[nH]nc(-c3ccncc3)c2c1 | 8.9 | 33 | 7.3 | 17.7 | 68.4 | 30 | 112 | 470 | 152 | 48 | 340 | 1.49 | 90 | 0.8 | 1.8 | 42 | 0.27 |
| N#Cc1ccc2c(c1)CCC[C@H]2Nc1ccc2[nH]nc(-c3ccnc(N4CCOCC4)c3)c2c1 | 6.2 | 30 | 0.8 | 12.7 | 36.6 | 30 | 80 | 500 | 175 | 51.6 | 480 | 1.64 | 104 | 0.1 | 0.3 | 42 | 0.4 |
| N#Cc1ccc2c(c1)CCC[C@H]2Nc1ccc2[nH]nc(-c3ccncc3)c2c1 | 8.1 | 26 | 11 | 12.4 |  |  |  |  |  |  |  |  |  |  |  |  |  |
| Cc1cc(-c2n[nH]c3ccc(N[C@H]4CCCc5cc(C#N)ccc54)cc23)ccn1 | 13 | 22 | 4.1 | 15.4 |  |  |  |  |  |  |  |  |  |  |  |  |  |
